Experimental data published in patent publication US9074188B2, “Cardiomyocyte- and/or cardiac progenitor cell-proliferating agent and method for proliferating cardiomyocytes and/or cardiac progenitor cells” (KYOTO UNIVERSITY, priority 2010, dated 2015).

How the values were obtained:
[1] = tested on: Flkd6 cardiomyocytes whose differentiation was induced from EMG-7; assay: Influence on cell cycle: cells positive for pH3 (M phase) or EdU (S phase) in Flkd6; type: cell-based, mouse; details: Flkd6 cultured with agent; FIG. 2
Experimental: DMSO is a control wherein only a solvent was added.
In order to examine the influence on the cell cycle, the number of cells positive for phosphorylation of histone 3 (pH3) (M phase) or ethynyl […] (EdU) (S phase) was assayed (FIG. 2a-d).

[2] = tested on: Flkd6 cardiomyocytes whose differentiation was induced from mouse ES cells EMG-7; assay: Proliferation of mouse ES cell (EMG-7)-derived cardiomyocytes Flkd6: number of alpha-MHC-GFP-positive cells; type: cell-based; details: for number of alpha-MHC-GFP-positive cells after addition (screening): Flkd6 purified by FACS, cultured for 5 days, 1 μM BIO, 5 μM SU1498, 5 μM KN93, FIG. 1a; for number of alpha-MHC-GFP-positive cells by FACS: cultured for 2 days (Flkd6+2) or 5 days (Flkd6+5), especially Flkd6+5, FIG. 1b; for cardiomyocyte-proliferation-promoting effect (number of alpha-MHC-GFP-positive cells per well): Flkd6+5, FIGS. 3a, 3b, 3d
Experimental: The human iPS cells (253G1) were provided by Prof. […] 253G1 cells are available from RIKEN BRC.
Thereafter, Flk1-positive cells were separated using FACS, and the separated cells were cultured on OP9 cells using a 3 μg/ml Cyclosporine A-containing medium (alpha MEM supplemented with 10% FBS) for 6 days, to induce differentiation into cardiomyocytes. These cells are hereinafter referred to as Flkd6.
The above-mentioned Flkd6, obtained by differentiation of EMG-7, was subjected to purification by FACS using alpha-MHC-GFP as an index. […] These three agents were added to Flkd6, and the cells were then cultured for 2 days (Flkd6+2) or 5 days (Flkd6+5), followed by measuring the number of alpha-MHC-GFP-positive cells by FACS.

SMILES | influence on the cell cycle: pH3 (M phase) or EdU (S phase) positive cells [1] | number of alpha-MHC-GFP-positive cells after addition (screening) [2] | number of alpha-MHC-GFP-positive cells by FACS [2] | cardiomyocyte-proliferation-promoting effect (number of alpha-MHC-GFP-positive cells per well) [2]
O=C1Nc2cc(Br)ccc2/C1=C1/Nc2ccccc2/C1=N\O [BIO, 6-bromoindirubin 3′-oxime] | promotes the S phase and the M phase from the early stage after its addition | significantly increased the number of alpha-MHC-GFP-positive cells | significant increase in the number of the positive cells | 
Cc1c[nH]c(-c2cnc(NCCNc3ccc(C#N)cn3)nc2-c2ccc(Cl)cc2Cl)n1 [CHIR99021] |  |  |  | also have similar effects
CN([C@@H](Cc1ccc(OS(=O)(=O)c2cccc3cnccc23)cc1)C(=O)N1CCN(c2ccccc2)CC1)S(=O)(=O)c1cccc2cnccc12 [KN62, 1-[N,O-bis(5-isoquinolinesulfonyl)-N-methyl-L-tyrosyl]-4-phenylpiperazine] |  |  |  | also have similar effects
COc1ccc(S(=O)(=O)N(CCO)c2ccccc2CN(C)CC=Cc2ccc(Cl)cc2)cc1 [KN93] |  | significantly increased the number of alpha-MHC-GFP-positive cells | significant increase in the number of the positive cells | 
CC(C)c1cc(/C=C(\C#N)C(=O)NCCCc2ccccc2)cc(C(C)C)c1O [SU1498, (E)-3-(3,5-diisopropyl-4-hydroxyphenyl)-2-[(3-phenyl-n-propyl)aminocarbonyl]acrylonitrile] |  | significantly increased the number of alpha-MHC-GFP-positive cells | significant increase in the number of the positive cells | 
Cc1ccc(NC(=O)c2cccc(N(C)C)c2)cc1NC(=O)c1ccc(O)cc1 [ZM336372, 3-(dimethylamino)-N-[3-[(4-hydroxybenzoyl)amino]-4-methylphenyl]benzamide] |  |  |  | has a cardiomyocyte-proliferation-promoting effect
